Key:
[1] = tested on: HT29 (human colon cancer cell line); conditions: read-out: IC50 (μM) HT29; MTS assay, 72 h, mean ± SD
Procedure: The human colon cancer (HT29), breast cancer (MCF7), prostate cancer (DU145) and ovarian cancer (SK-OV-3) cell lines, were obtained from Central Institute of Pharmaceutical Research, CSPC Pharmaceutical Group, China. The human lung cancer cell lines H460 and A549 were purchased from the American Type Culture Collection (ATCC). […] MCF7 and SK-OV-3 were cultured in advanced Dulbecco's modified Eagle medium (DMEM), and other cell lines were cultured as adherent monolayer in RPMI-1640 supplemented with 1% (w/v) glutamine and 10% (v/v) fetal bovine serum (Gibco) at 37°C under a humidified atmosphere containing 5% CO2 and 95% air.
Cytotoxicity assays were carried out by the Celltiter 96 aqueous nonradioactive cell proliferation assay (Promega, Madison, WI). Cells were harvested by trypsinization and seeded in a 96-well flat-bottomed microplate in volumes of 100 μL at the following appropriate densities: 5.0 × 10^3 (A549), 8.0 × 10^3 (HT29), and 3.0 × 10^3 (H460), 5.0 × 10^3 (SKOV3), 8.0 × 10^3 (MCF7), 8.0 × 10^3 (DU145) cells per well. After being allowed to settle and resume exponential growth for 24 h, the cells were treated either with vehicle or with appropriate serial dilutions of the complexes. […] All the tested compounds were dissolved at room temperature prior to use and serially diluted in medium. Cells were incubated in a humidified atmosphere of 5% CO2 at 37°C for 72h. After incubation, 20 μL of MTS/PMS solution were added to each well and the mixtures were allowed to equilibrate for 2 h. The absorbance of MTS products was measured spectrophotometrically at 490 nm with microplate reader (VERSAmax, USA). The IC50 values of each test sample were calculated from nonlinear curve fits using dose-response equation in GraphPad Prism (La Jolla, CA). Experimental conditions were performed in five replicates and the calculated IC50 values are averages of three individual experiments.

[2] = tested on: 5′-Guanosine Monophosphate (5′-GMP); test: Reaction kinetics with 5′-GMP by 1H NMR; conditions: 5 mM complex, 10 mM 5′-GMP, 5 mM NaCl, pH 7.2-7.4, 37°C
Procedure: A 5 mM solution of the sodium chloride was added to the mixture to simulate the intracellular environment.
Kinetic study of the substitution reactions between sugar conjugated platinum complexes with 5′-Guanosine Monophosphate was performed on Bruker Avance 400 MHz spectrometer by ^1H NMR analysis. Platinum complex (5 mM) and 5′-GMP (10 mM) were freshly prepared in deuterium oxide (D2O) at 37°C. A 5 mM solution of the NaCl in D2O was added to the mixture just before running the spectra. All samples were incubated at 37°C in a water bath to simulate physiological conditions and 1H NMR spectra were recorded at 295 K over a period of several days.

[3] = tested on: SKOV3 (human ovarian cancer cell line); test: MTS cytotoxicity assay, SKOV3; format: cell-based; conditions: for IC50: MTS assay, 72 h, mean ± SD
Procedure: (§1) The cisplatin stock solution was prepared in PBS.

[4] = tested on: MCF7 (human breast cancer cell line); test: MTS cytotoxicity assay, MCF7; format: cell-based; conditions: 72 h, mean ± SD
Procedure: as §1

[5] = tested on: DU145 (human prostate cancer cell line); test: MTS cytotoxicity assay, DU145; format: cell-based; conditions: 72 h, mean ± SD
Procedure: as §1

[6] = tested on: A549 (human lung carcinoma); test: MTS cytotoxicity assay, A549; format: cell-based; conditions: for IC50: MTS assay, 72 h, mean ± SD
Procedure: as §1

[7] = tested on: H460 (human lung cancer cell line); test: MTS cytotoxicity assay, H460; format: cell-based; conditions: 72 h, mean ± SD
Procedure: as §1

[8] = tested on: BALB/c nude mice; conditions: previous study; cited from earlier work
[9] = tested on: HT29 human colon cancer cell line; test: GLUT1 inhibitor (quercetin) dependent cytotoxicity assay; format: cell-based; conditions: 48 h
Procedure: (E) RT-PCR analysis of GLUT1 mRNA expression in empty vector transfected and shGLUT1-transfected cells. NT: HT29 cells; mock: HT29 cells transfected by empty vector pLKO.1; shRNA1: HT29 cells transfected by shGLUT1-1 and selected by 1 μg/mL of puromycin; shRNA2: HT29 cells transfected by shGLUT1-2 and selected by 1 μg/mL of puromycin. […] HT29 exposed with PBS or quercetin alone were served as negative control. […] Data was calculated from three independent experiments. *P < 0.05, compared to the control group.
HT29 cells were grown in monolayer and were treated with and without quercetin, followed by exposure to 100 μM of platinum(II) complexes for 48 h. MTS assay was used to analyze the cell viability and the effects of GLUT1 inhibitor quercetin on cytotoxicity.

[10] = tested on: pUC18 plasmid DNA; test: Plasmid unwinding assay (gel electrophoresis); conditions: 12.5 to 100 μM, 37°C
Procedure: To assess if the in vitro anti-proliferative activity of the sugar conjugates may be at the DNA adduct level, a plasmid unwinding assay was performed. The local untwisting of closed-circular supercoiled DNA induced by different types of platinum−DNA adducts can be determined by this assay [36]. […] On agarose gels, supercoiled plasmid DNA (form I) migrates faster in an electrical field than the nicked circle (form II).
After the incubation period, drug-DNA mixtures were loaded onto 0.8% agarose gel and electrophoresis was performed in Tris-acetate/EDTA buffer (TAE) for 1.5 h at 80 V. The gel was stained with GelRed^TM nucleic acid dye, visualized and photographed on the Bio-Rad Trans illuminator IEC 1010 (Bio-Rad, Hercules, CA).

[11] = tested on: HT29 tumor xenograft BALB/c nude mice model
Procedure: Female BALB/c nude mice were inoculated by subcutaneous injection of HT29 human colon cancer cells (5 × 10^6). For the treatment groups, drug dosage was adjusted for average body weight for each group. Injection volume was 10 mL/kg. Each treatment group contains eight mice and control animals used ten mice and received injections of sterile saline. Treatments were initiated when the tumor reached a volume of 100-300 mm^3 in all mice. Animals received multiple treatments intravenously on days 0, 7, 14 and 21. […] Saline (5% v/v) was administered to the vehicle control group. Tumor volume was assessed regularly by measuring length (l) and width (w) with caliper and calculated using the formula V = lw^2/2. Body weight was recorded and used as a parameter of systemic toxicity. All mice were sacrificed on the 46th day of the experiment, and the tumor weight was measured.

[12] = tested on: DBA/2 mice; conditions: previous study; cited from earlier work
[13] = tested on: DBA/2 mice; conditions: both mouse models (DBA/2 and BALB/c)
Procedure: The maximum tolerated dose is defined as the highest tolerated dose (mean weight loss < 15%) without causing major (life-threatening) toxicity (< 15% toxic deaths) in the study.
Three weeks-old male DBA/2 mice purchased from Beijing Vital River Laboratory Animal Technology Co. Ltd. were used for MTD study. Determination of MTD was performed as previously described [22]. […] Physiological observations (body weight and food consumption) were recorded. The maximum tolerated dose is defined as the highest tolerated dose (mean weight loss < 15%) and not cause major (life-threatening) toxicity (< 15% toxic deaths) during the study.

[14] = tested on: L1210 leukemia bearing DBA/2 mice; conditions: 5a 11 mg/kg (18% MTD) vs oxaliplatin 7 mg/kg (70% MTD), i.p., days 1, 5, 9
Procedure: The same male DBA/2 mice were used for in vivo efficacy study. Mice were kept in a pathogen-free environment under a condition of constant photoperiod. […] Six mice for treatment groups and ten mice for control group were used for this in vivo study. L1210 murine leukemia cells (1 × 10^6) were injected intraperitoneally into DBA/2 mice on day 0. […] Control group of ten mice each received injections of sterile saline. Animals were observed daily for clinical signs of toxicity and body weight was measured throughout the study.

[15] = tested on: HT29, empty vector transfected and shGLUT1-transfected cells; test: Cellular platinum accumulation (ICP-MS); format: cell-based, human; conditions: 200 μM, 2 h, DNA isolated
Procedure: The uptake values are depicted in Figure 5H.
HT29 cells were seeded in 10 cm dishes at densities of 6 × 10^6 cells/dish and kept at 37°C in a humidified 5% CO2 incubator. […] The cell suspensions were centrifuged at 2500 rpm for 10 min and remove the PBS. Vortex vigorously to resuspend cells. Nuclei lysis solution was added to lyse the cells. DNA was extracted with TIANamp Genomic DNA kit (TIANGEN). The extracted DNA was dissolved in concentrated nitric acid (0.05 mL) and diluted with 4.95 mL of deionized water (final concentration 1% v/v) for determining the platinum content. The platinum content taken up by the cells was determined by Agilent 7700X ICP-MS (Agilent Technologies, Tokyo, Japan). Calibrations were done using standard solutions containing 6.25, 12.5, 25, 50 and 100 ppb platinum.

[16] = tested on: cisplatin resistant HT29cisR human colon carcinoma cell line; test: Cytotoxicity in cisplatin resistant cells; format: cell-based; conditions: read-out: IC50 against HT29cisR
Procedure: as §1

Compound | IC50 [1] | reaction with 5′-GMP compared to oxaliplatin [2] | IC50 [3] | IC50 [4] | IC50 [5] | IC50 [6] | IC50 [7] | MTD [8] | dependency of cell-killing potency on quercetin ([9]; 100 μM platinum complex, with or without quercetin (20 μM)) | mobility of supercoiled and singly-nicked plasmid DNA bands [10] | body weight change versus vehicle group ([11]; 5a 25 mg/kg, oxaliplatin 7 mg/kg, i.v. qw x 4) | MTD [12] | MTD higher than oxaliplatin [13] | lifespan and survival rate [14] | tumor volume ([11]; 25 mg/kg i.v., days 0, 7, 14, 21) | platinum uptake (intracellular platinum accumulation) [15] | activity higher than oxaliplatin in A549 ([6]; versus oxaliplatin) | IC50 [16] | lower IC50 values than oxaliplatin in SK-OV-3 ([3]; versus oxaliplatin) | cytotoxic effect of quercetin alone ([9]; quercetin 20 μM alone)
O=C1[O][Pt]2([NH][C@@H]3CCCC[C@H]3[NH]2)[O]C(=O)C1(F)CCO[C@@H]1O[C@H](CO)[C@H](O)[C@H](O)[C@H]1O (stereo partly drawn) [5c, (trans-R,R-cyclohexane-1,2-diamine)-2-fluoromalonatoplatinum(II)-β-D-galactose conjugate] | 1.07 ± 0.12 µM | faster reactions | 22.05 ± 0.2 µM | 9.82 ± 0.12 µM | 5.11 ± 0.14 µM | 4.9 ± 0.16 µM | 10 ± 0.15 µM |  |  |  |  |  |  |  |  |  |  |  |  | 
O=C1[O][Pt]2([NH][C@@H]3CCCC[C@H]3[NH]2)[O]C1=O [Oxaliplatin, reference compound] | 5.05 ± 0.2 µM |  | 8.54 ± 0.18 µM | 0.79 ± 0.11 µM | 2.05 ± 0.16 µM | 0.86 ± 0.09 µM | 22.11 ± 0.17 µM | 7 mpk | did not exhibit quercetin dependent cytotoxicity | increased and showed concentration dependency | no significant difference | 10 mpk |  |  |  |  |  |  |  | 
O=C1[O][Pt]2([NH][C@@H]3CCCC[C@H]3[NH]2)[O]C(=O)C1(F)CCO[C@H]1O[C@H](CO)[C@@H](O)[C@H](O)[C@H]1O (stereo partly drawn) [5a, (trans-R,R-cyclohexane-1,2-diamine)-2-fluoromalonatoplatinum(II)-α-D-glucose conjugate] | 0.53 ± 0.16 µM | faster reactions | 16.7 ± 0.32 µM | 0.61 ± 0.13 µM | 5.98 ± 0.16 µM | 0.35 ± 0.17 µM | 11.05 ± 0.11 µM | 36 mpk |  |  |  | 60 mpk | ~5 fold | overwhelming superiority in lifespan and survival rate | statistically significant tumor shrinkage | greater than that in HT29-shRNA1 and HT29-shRNA2 cells | 2 fold |  |  | 
N.N.[Cl][Pt][Cl] [Cisplatin, cis-(NH3)2PtCl2] |  |  |  |  |  |  |  |  |  | increased and showed concentration dependency |  |  |  |  |  |  |  | 19.4 µM |  | 
O=C1[O][Pt]2([NH][C@@H]3CCCC[C@H]3[NH]2)[O]C(=O)C1(F)CCO[C@H]1O[C@H](CO)[C@@H](O)[C@H](O)[C@@H]1O (stereo partly drawn) [5b, (trans-R,R-cyclohexane-1,2-diamine)-2-fluoromalonatoplatinum(II)-α-D-mannose conjugate] | 2.16 ± 0.18 µM | faster reactions | 2.22 ± 0.19 µM | 0.41 ± 0.09 µM | 2.6 ± 0.18 µM | 0.65 ± 0.1 µM | 10.2 ± 0.15 µM |  |  |  |  |  |  |  |  |  |  |  | up to 70% | 
O=c1c(O)c(-c2ccc(O)c(O)c2)oc2cc(O)cc(O)c12 [quercetin] |  |  |  |  |  |  |  |  |  |  |  |  |  |  |  |  |  |  |  | did not exert any cytotoxic effect

Source: PMC5503626, “GLUT1-mediated selective tumor targeting with fluorine containing platinum(II) glycoconjugates” (Oncotarget, 2017)
